Test [1] addresses T1, Orexin/Hypocretin receptor type 1 (Homo sapiens, UniProt O43613).
T1 sequence (O43613 whole entry): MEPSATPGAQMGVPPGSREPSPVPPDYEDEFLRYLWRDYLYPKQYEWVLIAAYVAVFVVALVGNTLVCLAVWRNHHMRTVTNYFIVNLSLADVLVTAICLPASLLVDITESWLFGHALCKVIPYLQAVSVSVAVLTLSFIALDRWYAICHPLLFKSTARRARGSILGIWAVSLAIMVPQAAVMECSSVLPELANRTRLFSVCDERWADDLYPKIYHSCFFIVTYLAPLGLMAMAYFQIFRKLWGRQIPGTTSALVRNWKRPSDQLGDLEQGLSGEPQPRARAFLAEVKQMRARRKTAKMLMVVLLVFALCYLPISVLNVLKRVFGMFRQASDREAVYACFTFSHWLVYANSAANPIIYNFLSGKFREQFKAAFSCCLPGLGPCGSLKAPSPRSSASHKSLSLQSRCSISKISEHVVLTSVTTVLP
It counts as functional, cell-based, RBL-2H3.

Test [2] concerns the target T2, Orexin receptor type 2 (Homo sapiens, UniProt O43614).
T2 sequence (O43614 whole entry): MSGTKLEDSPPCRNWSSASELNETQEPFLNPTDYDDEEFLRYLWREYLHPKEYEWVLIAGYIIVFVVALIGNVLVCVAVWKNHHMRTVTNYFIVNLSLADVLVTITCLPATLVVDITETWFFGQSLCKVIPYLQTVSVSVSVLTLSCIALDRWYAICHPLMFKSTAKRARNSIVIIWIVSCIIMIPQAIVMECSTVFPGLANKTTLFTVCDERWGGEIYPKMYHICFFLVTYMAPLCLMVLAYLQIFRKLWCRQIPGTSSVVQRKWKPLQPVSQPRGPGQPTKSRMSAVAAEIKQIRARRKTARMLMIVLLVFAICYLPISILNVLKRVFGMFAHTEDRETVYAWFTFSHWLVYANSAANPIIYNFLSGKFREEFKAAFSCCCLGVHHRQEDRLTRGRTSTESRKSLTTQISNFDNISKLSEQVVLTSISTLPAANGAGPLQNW
Format: functional, cell-based, RBL-2H3.

A value given as a limit tells only on which side of the number the result lay.

For orientation: IC50 means the concentration that inhibits the measured activity by half. High values mean weaker potency, low ones greater potency. `O=C(N[C@H]1CCC[C@@H]1Nc1ccc(OC(F)(F)F)cn1)c1cc(Cl)ccc1-n1nccn1`: the 50% inhibitory concentration (IC50) in test [1] is 406 nM; in test [2], above 10000 nM.
The matching figures for `Cc1ccc(-n2nccn2)c(C(=O)N[C@H]2CCC[C@@H]2Nc2ccc(Cl)cn2)c1`: 270 nM and above 10000 nM.
In the same order, the values of `COc1cccc(Br)c1C(=O)N[C@H]1CCC[C@@H]1Nc1cnc(C(F)(F)F)cn1` are 367 nM and above 10000 nM.

Source of the values: ChEMBL document CHEMBL3886283, “Cycloalkyl and heterocycloalkyl compounds as orexin receptor antagonists” (2015).
